According to patent US20260158023A1, “APOMORPHINE FOR TREATING OR IMPROVING POST-TRAUMATIC STRESS DISORDER” (priority 2024, published 2026):

Columns and labels:
[1] = system: restraint stress post-traumatic stress model (C57BL/6 mice); test: stimulus identification fear conditioning experiment in restraint stress model of post-traumatic stress disorder; type: in vivo; conditions: administered 30 minutes before the fear test
Method: (§1) C57BL/6 mice were stressed by restricting movement for 2 hours (restraint stress), and one week later, two sounds were simultaneously applied: one with sound-only (safety stimuli) and the other with sound paired with electrical stimulation (fear stimuli). The next day, generalization, the freezing level to the safety stimulus (CS-), which is one of the indicators of post-traumatic stress disorder, was measured through fear responses to the two sounds (stimulus identification fear conditioning experiment).
To confirm the effect of apomorphine on the post-traumatic stress model according to concentration, apomorphine of different concentrations was administered 30 minutes before the fear test.

[2] = system: one-time persistent stress post-traumatic stress model; test: open field test in one-time persistent stress model; type: in vivo, mice; conditions: after apomorphine administration
From the text: (§2) In order to strengthen the fear response to safety stimuli, a one-time persistent stress was introduced to apply stronger stress. The one-time persistent stress consists of the existing 2-hour restraint stress, 10-minute forced swim test, and 5-minute ether anesthesia.
The level of anxiety symptoms can be determined through the time spent in the center in the open field test.

[3] = system: one-time persistent stress post-traumatic stress model; test: elevated plus maze test in one-time persistent stress model; type: in vivo, mice; conditions: after apomorphine administration
[4] = system: one-time persistent stress post-traumatic stress model; test: stimulus identification fear conditioning experiment in one-time persistent stress model; type: in vivo, mice; conditions: for CS-freezing: one week after one-time persistent stress; for fear response to safety stimuli: one-time persistent stress model
Method: as §1, §2
We observed the fear response in a stimulus identification fear conditioning experiment when apomorphine (1 ug/kg, 3 ug/kg) was administered one week after a one-time persistent stress, which is a more powerful post-traumatic stress model.
In order to compare the effect of apomorphine with that of the existing treatment, paroxetine, a stimulus identification fear conditioning experiment was conducted after stress was applied under the same conditions.

normal mice (drd4 WT) = test: stimulus identification fear conditioning experiment in one-time persistent stress model, normal mice (drd4 WT); type: in vivo; conditions: as in Example 2.3
[5] = system: mice lacking drd4 receptors (drd4 KO); test: stimulus identification fear conditioning experiment in one-time persistent stress model, mice lacking drd4 receptors (drd4 KO); type: in vivo; conditions: as in Example 2.3

Row | SMILES | CS-freezing (freezing level to the safety stimulus) ([1]; 1 ug/kg) | CS-freezing (freezing level to the safety stimulus) ([1]; 3 ug/kg) | mean distance in the open field test (overall walking function) [2] | time spent in the center in the open field test [2] | time spent in the open arm in the elevated plus maze test [3] | CS-freezing ([4]; 1 ug/kg) | CS-freezing ([4]; 3 ug/kg) | fear response compared to vehicle administration (normal mice (drd4 WT)) | fear response between apomorphine administration and vehicle administration [5] | fear response to safety stimuli ([4]; 5 ug/kg) | fear response to safety stimuli ([4]; all concentrations: 150 ug/kg, 300 ug/kg and 500 ug/kg)
1 | CN1CCc2cccc3c2[C@H]1Cc1ccc(O)c(O)c1-3 [apomorphine, Apomorphine] | decreased | did not change | no difference | significantly increased | significantly increased | decreased | did not change | decreased | no difference |  | 
2 | Fc1ccc([C@@H]2CCNC[C@H]2COc2ccc3c(c2)OCO3)cc1 [paroxetine] |  |  |  |  |  |  |  |  |  | no significant difference | reduced
